The values that follow come from paper PMC9329053, “Discovery of Novel Tyrosinase Inhibitors From Marine Cyanobacteria” (Frontiers in Microbiology, 2022).

Like-named read-outs stand apart in the source and are kept apart here. A value given as a limit tells only on which side of the number the result lay.

In series [1] the target is Mushroom tyrosinase. The following applies: cited from earlier work.
Series [2] addresses T1, mushroom tyrosinase (A. bisporus) (Agaricus bisporus, UniProt C7FF04).
T1 construct: purchased Sigma-Aldrich and Worthington Biochemical Corp
As to the kind of experiment: End-point colorimetric tyrosinase inhibition assay (broad screening). In kind it is biochemical. The following applies: within 20 minutes; 475 and 490 nm; blank with enzyme rises to ~0.100.
Procedure: Four types of assay wells were designated for each screening plate (see Supplementary Figure S2 for visualization), in which the following reaction mixtures were added: A [Blank Control with Enzyme] contains 2 μl of DMSO, 118 μl of prepared 0.067 M sodium phosphate buffer and 40 μl of tyrosinase (100 units/ml) in the same buffer; B [Blank Control without Enzyme] contains 2 μl of DMSO and 158 μl of 0.067 M sodium phosphate buffer; C [Testing Material with Enzyme] contains 2 μl of sample (1 mg/ml in DMSO), 118 μl of 0.067 M sodium phosphate buffer and 40 μl of tyrosinase (100 Units/mL) in the same buffer; D [Testing Material without Enzyme] contains 2 μl of sample (1 mg/ml in DMSO) and 158 μl of 0.067 M sodium phosphate buffer. Samples were tested in triplicate.
The final test sample concentration was 10 μg/ml, while the final DMSO concentrations for both negative controls and samples kept ≤1%. […] Forty-five seconds of shaking was performed by the instrument before the wells were read.
The percentage inhibition of the tyrosinase activity was calculated by the equation: % Inhibition = {[(A − B) − (C − D)]/(A − B)} × 100, where A, B, C and D are all OD values from the corresponding wells at the same time point. It reflects the inhibitory strength of the testing material by comparing to the blank condition where no inhibitor is added.

The target in series [3] is T1, mushroom tyrosinase (A. bisporus). In words: Dynamic dose-dependent tyrosinase inhibition study. The format is biochemical. The protocol: Respectively, the final concentration gradient of the test samples was set to be 200, 150, 75, 25, 5, and 1 μM. For OD measurements, the plate was read in the dynamic mode for 60 min with measurements recorded every minute, using the SpectraMax M3 plate reader at 475 nm and 490 nm. Forty-five seconds of shaking was also performed before first reading to retain method consistency.

Series [4] addresses T2, mushroom tyrosinase (Agaricus bisporus, UniProt C7FF04).
T2 construct: purchased Sigma-Aldrich and Worthington Biochemical Corp
As to the kind of experiment: Kinetic analysis of tyrosinase and inhibitors (Lineweaver-Burk). In kind it is biochemical, A. bisporus. The protocol:
The Lineweaver–Burk plot was generated using Graphpad Prism 9.2.0. Experiments were performed in triplicate.
A kinetic study was performed to better understand the tyrosinase inhibitory properties of ScyM. For this kinetic mode analysis, varying concentrations of substrate and inhibitor were used in the assays in order to generate Lineweaver–Burk plots. […] The Lineweaver–Burk plot (Figures 6A,B), also known as the double reciprocal plot, is commonly used to determine the mechanism of how an inhibitor is inhibiting an enzyme. […] Two inhibition parameters, the Michaelis–Menten constant (Km) and maximal velocity (Vmax), are also visualized in this plot. […] The apparent Km and Vmax values were calculated as an average of triplicate measurements and are provided with standard deviations (see Table 2).

Series [5] has as its system NCI-H460 human lung carcinoma cell line. As to the kind of experiment: MTT cytotoxicity assay. The format is cell-based. The following applies: H460 human lung cancer cells; no significant effect at concentration as high as 254 μM. The method, then:
The cytotoxicity assay was performed using a protocol previously published ([Yu H.-B. et al., 2019]; [Leber et al., 2020]). Briefly, the MTT staining method was used to determine the cytotoxicity of compounds of interest using the NCI-H460 human lung carcinoma cell line purchased from ATCC (Manassas, VA, United States). The cells were grown in flasks and then seeded into wells at 3.33 × 10^4 cells/ml of Roswell Park Memorial Institute (RPMI-1640) medium with standard fetal bovine serum (FBS), leading to 180 μl/well. The cells were then pre-incubated for 24 h at 37°C in 96-well plates before drug was added. Thereafter, with addition of diluted compounds of interest dissolved in DMSO, plates were incubated for an additional 48 h and then stained with MTT (thiazolyl blue tetrazolium bromide 98%; Sigma-Aldrich) for 25 min, after which the optical densities (OD) were recorded at 630 and 570 nm for each well on a SpectraMax M3 plate reader (Molecular Devices, San Jose, CA, United States). Doxorubicin and 1% DMSO in RPMI-1640 without fetal bovine serum were used as positive and negative controls, respectively. Polyethylene glycol (PEG) was used to facilitate dissolution of compounds with limited solubility.

In series [6] the target is T3, tyrosinase (Agaricus bisporus, UniProt C7FF04).
T3 construct: purchased Sigma-Aldrich and Worthington Biochemical Corp
In words: Isobologram / interaction index analysis of ScyM and KA. The following applies: single compounds, determined again for the isobologram; read-out: IC50 (another round of dose-dependent assays). The format is biochemical, A. bisporus.
Source text: Based on the derived equation, γ=∑i=2ndi/Di , where Di represents the dose of an individual drug to achieve 50% efficacy when acting alone, and di represents the dose of each drug in the compound mixture when the combined drug achieves 50% efficacy. Accordingly, when the interactions between drugs are synergistic, additive, and antagonistic, the corresponding values of γ are <1, = 1, and >1, respectively. Therefore, the smaller the index value, the stronger the synergistic effect.

The nature of series [7]: Solubility of ScyM in the assay buffer system.
Details of series [8]: method as in Malla and Sommer, 2014; Kang et al., 2020. The following applies: ref Malla and Sommer, 2014; Kang et al., 2020; cited from earlier work.
Setting [9] is: mushroom tyrosinase, SD not given, ref Wu et al., 2013.
Setting [10] is: mushroom tyrosinase, ref Paudel et al., 2019.
[11] abbreviates: mushroom tyrosinase, SD not given, ref Li et al., 2005.
[12] abbreviates: mushroom tyrosinase, SD not given, ref Sheng et al., 2018.

T2 sequence (C7FF04 1-392): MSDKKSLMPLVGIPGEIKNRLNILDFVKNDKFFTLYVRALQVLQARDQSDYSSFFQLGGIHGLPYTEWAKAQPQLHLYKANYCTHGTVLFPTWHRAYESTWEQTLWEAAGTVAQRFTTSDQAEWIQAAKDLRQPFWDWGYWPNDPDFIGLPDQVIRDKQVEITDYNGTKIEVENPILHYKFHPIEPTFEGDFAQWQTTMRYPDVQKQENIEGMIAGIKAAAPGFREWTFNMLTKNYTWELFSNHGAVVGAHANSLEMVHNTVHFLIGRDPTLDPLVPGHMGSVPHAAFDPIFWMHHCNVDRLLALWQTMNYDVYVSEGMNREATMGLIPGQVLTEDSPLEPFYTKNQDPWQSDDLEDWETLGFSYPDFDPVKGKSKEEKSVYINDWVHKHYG
T1 sequence (C7FF04 1-392): as above
T3 sequence (C7FF04 1-392): as above

`O=C1Cc2c([nH]c3ccccc23)/C1=C\c1ccc(O)cc1` (hydrate or solvate) [ScyM, scytonemin monomer]: the melting point was > 210 °C.

In the case of `CC(=O)OC[C@]12[C@H](OC(C)=O)[C@H](O)C[C@H](C)[C@]1(OC(C)=O)[C@@H](OC(C)=O)[C@@H](C(C)(C)O)C[C@H]2OC(=O)c1ccccc1` [1β,5α,6α,14-Tetraacetoxy-9α-benzoyloxy-7β H-eudesman-2β,11-diol], the IC50 in series [1] (setting [9]) was 14.8 µM.

On to `OCCc1c(Br)c(O)c(O)c(Br)c1Br` [2,3,6-Tribromo-4,5-dihydroxybenzyl methyl alcohol], for which the IC50 in [1] (setting [10]) was 270.5 ± 2.04 µM. In series [1] (ref Paudel et al., 2019), the Mechanism entry is given as “Competitive”.

As to `O=C(O)c1cccc(-c2ccccc2)c1` [3-Phenylbenzoic acid (3-PBA), 3-Phenylbenzoic acid], the half-inhibitory concentration (IC50) in series [1] (mushroom tyrosinase, SD not given, ref Oyama et al., 2016) is 36.3 µM. In series [1] (ref Oyama et al., 2016), the Mechanism entry is “Mixed”.

Take `CC(=O)O[C@@]12C[C@@H](C(C)(C)O)C[C@@H](OC(=O)c3ccccc3)[C@@]1(CO)[C@H](O)[C@H](O)C[C@@]2(C)OC(C)=O` [4α,5α-Diacetoxy-9α-benzoyloxy-7βH-eudesman-1β,2β,11, 14-tetraol]: in [1] (setting [9]), the IC50 is 22.3 µM.

On to `CCCCCc1cccc(=O)o1` [6-n-Pentyl-α-pyrone], for which, in [1] (setting [11]), the IC50 was 0.8 µM.

As for `COc1ccc(/C=C/C(=O)Oc2cc(OC)ccc2C(C)=O)cc1` [(E)-2-Acetyl-5-methoxyphenyl-3-(4-methoxyphenyl)acrylate], the IC50 in series [1] (setting [12]) was 8.3 µM. For the same molecule, the Mechanism result in series [1] (ref Sheng et al., 2018) was “Mixed”.

As for `Cc1ccc(C(C)C)c(OC(=O)/C=C/c2ccc(O)cc2)c1` [(E)-2-Isopropyl-5-methylphenyl-3-(4-hydroxyphenyl)acrylate], the IC50 in series [1] (setting [12]) was 10.6 µM. The Mechanism entry in series [1] (ref Sheng et al., 2018) is reported as “Mixed”.

With `O=c1cc(-c2ccccc2)oc2cc(O)c(O)c(O)c12` [Baicalein], in series [1] (mushroom tyrosinase, SD not given, ref Guo et al., 2018), the IC50 was 110 µM. In addition, the Mechanism result in series [1] (ref Guo et al., 2018) is reported as “Mixed”.

Consider `O=C1C=C2CC3(O)COc4cc(O)ccc4C3=C2C=C1O` (stereo not drawn) [Brazilein], for which the IC50 in series [1] (mushroom tyrosinase, ref Hridya et al., 2015) is 21200 µM. Also, the Mechanism entry in series [1] (ref Hridya et al., 2015) is reported as “Mixed”.

Regarding `C=C[C@]1(O)CC(NC=O)=CC1=O` [Myrothenone A], the IC50 in [1] (setting [11]) is 6.6 µM.

Take `O=C1Cc2c([nH]c3ccccc23)/C1=C\c1ccc(O)cc1` [ScyM, scytonemin monomer]: the “OD reading with tyrosinase enzyme” value in series [2] is recorded as ~ 0.080. Besides, the values for the 50% inhibitory concentration (IC50) in series [3] and in [6] were 4.9 ± 0.3 µM and 4.7 µM, respectively. Further, in series [3] (read-out: inhibition by crude ScyM), the inhibition at 25 µM was ~60%. Moreover, the inhibition at 10 µM in series [3] (read-out: inhibition by purified ScyM) is ~60%. Besides, the Inhibition mode entry in series [4] (Lineweaver-Burk plot, L-Dopa substrate) is “Mixed”. Moreover, the Mechanism entry in series [4] (Table 3, this experiment) is given as “Mixed”. The “Vmax (OD·min^−1)” value in series [4] (apparent Vmax of tyrosinase with inhibitor, L-Dopa substrate, triplicate with SD) came out at 5.98 ± 0.52 OD·min^−1. In addition, the cytotoxicity result in [5] is given as “non-cytotoxic”. For the same molecule, the “saturation point in the assay system” value in [7] (0.067 M sodium phosphate buffer, ≤1% DMSO, precipitate seen at 75, 150 and 200 μM) is given as “less than 75 μM”. Further, in series [7] (range of 0–10 μM), the “dissolution in the assay buffer system” value was “fully dissolves with no precipitate”.

For `COc1ccc(/C=C2/C(=O)Cc3c2[nH]c2ccccc32)cc1` [ScyM-OMe, O-Methyl Scytonemin Monomer], the inhibition at 35 µM in series [3] (35 μM) was ~1%.

`O=C(O)c1ccc(C(=O)O)cc1` [Terephthalic acid]: in [1] (mushroom tyrosinase, ref Yin et al., 2011), the IC50 is 26600 µM. In addition, the Mechanism result in [1] (ref Yin et al., 2011) is “Mixed”.

Take `CC[C@H](C)[C@@H]1NC(=O)[C@H](Cc2ccc(O)cc2)N(C)C(=O)[C@H]([C@H](C)O)N2C(=O)[C@H](CC[C@H]2O)NC(=O)[C@H](CC(C)C)NC(=O)[C@@H](NC(=O)[C@H](CCC(N)=O)NC(=O)[C@H](CCc2ccc(O)cc2)NC(=O)[C@H](O)CO)[C@@H](C)OC1=O` [oscillapeptin G]: the IC50 in [1] (tyrosinase, post-conversion, ref Sano and Kaya, 1996) was ~100 µM.

Regarding “Bis-(2,3,6-tribromo-4,5-dihydroxybenzyl methyl ether”, in [1] (setting [10]), the IC50 was 111 ± 4.95 µM. In [1] (ref Paudel et al., 2019), the Mechanism entry is on record as “Competitive”.

As to scytonemin, the “tyrosinase inhibition in dose-dependent assay” value in series [3] (all concentrations tested, from 1 up to 200 μM) was “almost no inhibition”. For the same molecule, the cytotoxicity entry in series [8] is listed as “non-cytotoxic”.
